Source: patent publication US20120214818A1, “METHODS OF TREATING DIASTOLIC DYSFUNCTION AND RELATED CONDITIONS” (THE BOARD OF TRUSTEES OF THE UNIVERSITY OF ILLINOIS, priority 2009, published 2012)

Test system: isolated ventricular cardiomyocytes from DOCA-salt and sham mice
Assay: Cell shortening (sarcomere shortening and relengthening) of isolated cardiomyocytes
Format: cell-based, mouse
Details: for relaxation τ (relaxation time constant): 10 μmol/L ranolazine 10 min
Description: Myocyte isolation: Cardiac ventricular myocytes were isolated from the hearts of DOCA-salt or age matched controls mice 14-18 d post-operatively using a modified enzymatic digestion protocol from the Alliance for Cellular Signaling as previously described.^20 Cell shortening and calcium transient measurements: The mechanical properties of the cardiomyocytes were assessed using an IonOptix Myocam System (Ionoptix Inc., Milton, Mass.). Unloaded cardiomyocytes were placed on a glass slide and allowed to adhere for 10 min. Cardiomyocytes were then imaged with an inverted microscope and perfused with a Tyrode's buffer containing 1.2 mmol/L calcium at room temperature. Cardiomyocytes were paced at 0.5 Hz for 10 ms duration, and sarcomere shortening and relengthening were assessed using the following indices: peak fractional shortening (FS), time to 90% peak shortening, and τ, the relaxation time constant (a0+[…]^t/τ, t=time). Cardiomyocytes were treated with 10 μmol/L ranolazine for 10 min prior to evaluation. For calcium transient measurements, cardiomyocytes were loaded with 1 μmol/L Fura 2-AM for 10 min at room temperature, and fluorescence measurements were recorded with a dual-excitation fluorescence photomultiplier system (IonOptix). After loading, the cells were washed and resuspended in normal Tyrode solution. The cardiomyocytes were placed then in the cell chamber, stimulated at 0.5 Hz for 10 ms duration, and imaged through a Fluor×40 objective lens. Cells were exposed to light emitted by a 75-W Xenon lamp and passed though either a 340- or 380-nm wavelength filter. The emitted fluorescence was detected at 510 nm. To take into account any inference from background fluorescence, the background fluorescence for each cardiomyocyte was determined by moving the cardiomyocyte out of the view and recording the fluorescence from the bath solution alone. The mechanical properties of the cardiomyocytes were assessed using an IonOptix Myocam System (Ionoptix Inc., Milton, Mass.). Unloaded cardiomyocytes were placed on a glass slide and allowed to adhere for 10 min at 37° C. Cardiomyocytes were then imaged with an inverted microscope and perfused with a Tyrode's buffer containing 1.2 mmol/L calcium at room temperature. Cardiomyocytes were paced at 0.5, 1, or 2 Hz for 10 ms duration, and sarcomere shortening and relengthening were assessed using the following indices: peak fractional shortening (FS), time to 90% peak shortening, and τ, the relaxation time constant (a0+[…]^t/τ, t=time). Cardiomyocytes were treated with 10 μmol/L ranolazine for 10 min prior to evaluation. […] For calcium transient measurements, cardiomyocytes were loaded with 1 μmol/L fura 2-AM for 10 min at 37° C., and fluorescence measurements were recorded with a dual-excitation fluorescence photomultiplier system (IonOptix). After loading, the cells were washed and resuspended in normal Tyrode solution. The cardiomyocytes were placed then in the cell chamber, stimulated at 0.5, 1, or 2 Hz for 10 ms duration, and imaged through a Fluor×40 objective lens. Cells were exposed to light emitted by a 75-W Xenon lamp and passed though either a 340- or 380-nm wavelength filter. The emitted fluorescence was detected at 510 nm. To take into account any interference, the background fluorescence for each cardiomyocyte was determined by moving the cardiomyocyte out of the view and recording the fluorescence from the bath solution alone. Myocyte isolation: Cardiac ventricular myocytes were isolated from the hearts of DOCA-salt or age matched controls mice 14-18 d post-operatively using a modified enzymatic digestion protocol from the Alliance for Cellular Signaling as previously described (Silberman et al., Circulation 121: 519-528 (2010)).

[1] = DOCA-salt cardiomyocytes paced at 1 Hz and 2 Hz (FIG. 14)

COc1ccccc1OCC(O)CN1CCN(CC(=O)Nc2c(C)cccc2C)CC1 (stereo not drawn) [ranolazine]
relaxation time (τ) at 1 and 2 Hz pacing [1]: improved relaxations times at both frequencies | sarcomere length at 1 and 2 Hz pacing [1]: lengthened sarcomere length at both frequencies | relaxation τ (relaxation time constant) (DOCA-salt cardiomyocytes, 0.5 Hz, 37° C. (Example 7)): 0.13 ± 0.01 s | relaxation τ (relaxation time constant) (DOCA-salt cardiomyocytes, paced 0.5 Hz, room temperature (Example 3)): 0.08 ± 0.01 s | resting (baseline) sarcomere length (DOCA-salt cardiomyocytes, 10 μmol/L ranolazine (Example 6)): 1.81±0.01 μm | resting (baseline) sarcomere length (DOCA-salt cardiomyocytes, 10 μmol/L ranolazine, 37° C. (Example 7)): 1.81±0.01 μm | contraction (fractional shortening, time to 90% peak contraction) (sham and DOCA-salt cardiomyocytes, 10 μmol/L ranolazine): did not affect contraction | relaxation τ (relaxation time constant) (sham cardiomyocytes, 0.5 Hz, 37° C. (Example 7)): 0.09 ± 0.02 s | relaxation τ (relaxation time constant) (sham cardiomyocytes, paced 0.5 Hz, room temperature (Example 3)): 0.07 ± 0.01 s | resting (baseline) sarcomere length (sham cardiomyocytes, 10 μmol/L ranolazine (Example 6)): 1.82±0.01 μm | resting (baseline) sarcomere length (sham cardiomyocytes, 10 μmol/L ranolazine, 37° C. (Example 7)): 1.86±0.02 μm | reversibility of the effect on relaxation and sarcomere length (washout): reversible upon washout
